Laboratory results as given in ChEMBL document CHEMBL1201862, “PubChem BioAssay data set” (2004).
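Values below derive from 48-hour exposures of cells grown in 96-well plates, with endpoints linearly interpolated between the two concentrations bracketing the appropriate inhibition level. GI50 marks 50% less growth.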 Calls of active or inactive are those of the source. Rule as the data show it: active = GI50 up to about 1.1 µM and inactive = higher.

Assays:
Test in all cases: inhibition of tumour cell growth, NCI panel, 48 h
[1] = system: OVCAR-4
[2] = system: UACC-257
[3] = system: SK-MEL-5
[4] = system: OVCAR-8
[5] = system: M19-MEL
[6] = system: RXF 393
[7] = system: KM-20L2
[8] = system: NCI-H226
[9] = system: HCC 2998
[10] = system: KM12
[11] = system: M14
[12] = system: UO-31
[13] = system: IGROV-1
[14] = system: A498
[15] = system: SNB-75
[16] = system: LOX IMVI
[17] = system: 786-0
[18] = system: HOP-18
[19] = system: NCI-H460
[20] = system: CAKI-1
[21] = system: SNB-19
[22] = system: TK-10
[23] = system: HOP-92
[24] = system: HCT-116
[25] = system: SF-539
[26] = system: RXF 631
[27] = system: DLD-1
[28] = system: OVCAR-3
[29] = system: Malme-3M
[30] = system: EKVX
[31] = system: U-251
[32] = system: SK-MEL-28
[33] = system: NCI-H23
[34] = system: SF-295
[35] = system: DMS-273
[36] = system: RPMI-8226
[37] = system: SN12C
[38] = system: ACHN
[39] = system: UACC-62
[40] = system: COLO 205
[41] = system: CCRF-CEM
[42] = system: HT-29
[43] = system: LXFL 529
[44] = system: HOP-62
[45] = system: SF-268
[46] = system: SK-OV-3
[47] = system: SNB-78
[48] = system: OVCAR-5
[49] = system: HL-60
[50] = system: XF498
[51] = system: K562
[52] = system: A549
[53] = system: SW-620
[54] = system: NCI-H522

Measured: GI50

C/C(=N\NC(=S)N1CCC(C2CCN(C(=S)N/N=C(\C)c3ccccn3)CC2)CC1)c1ccccn1
inactive: [1] > 100 µM | [2] > 100 µM | [3] 62.4 µM | [4] 46.7 µM | [5] > 100 µM | [6] 71.8 µM | [7] > 100 µM | [8] 60.7 µM | [9] > 100 µM | [10] > 100 µM | [11] > 100 µM | [12] > 100 µM | [13] 68.7 µM | [14] > 100 µM | [15] 28.2 µM | [16] 68.9 µM | [17] 45.4 µM | [18] > 100 µM | [19] > 100 µM | [20] 68.1 µM | [21] 74.1 µM | [22] 53.8 µM | [23] 37.8 µM | [24] 29.2 µM | [25] 51.3 µM | [26] > 100 µM | [27] > 100 µM | [28] 60.3 µM | [29] > 100 µM | [30] > 100 µM | [31] 34.1 µM | [32] > 100 µM | [33] 59.7 µM | [34] 71.3 µM | [35] 64.1 µM | [36] > 100 µM | [37] 86.3 µM | [38] 53.7 µM | [39] > 100 µM | [40] > 100 µM | [41] > 100 µM | [42] > 100 µM | [43] 55.3 µM | [44] > 100 µM | [45] > 100 µM | [46] 38.4 µM | [47] 44.3 µM | [48] > 100 µM | [49] > 100 µM | [50] 35 µM | [51] > 100 µM | [52] 55 µM | [53] > 100 µM | [54] 63.5 µM
